Here are results for 52 molecules from PubChem BioAssay AID1996.

Converted amounts (≈) assume the structure as drawn.

The conditions of this series: buffer; pH 7.4; 200.0 µM.
By kinetic solubility is commonly meant the concentration staying in solution when a stock, usually in DMSO, is diluted into the medium. `Nc1cc(=O)n(Cc2ccccc2)c(=O)n1-c1ccc(F)cc1` had a solubility (kinetic) greater than 46.7 µg/mL.

Consider `O=C(Nc1nc2ccc([N+](=O)[O-])cc2s1)c1ccncc1`, for which the kinetic solubility came to 1.9 µg/mL (≈ 6.33 µM).

For the molecule `O=C(CCNC(=O)c1ccco1)Nc1nc2ccccc2s1`, the solubility (kinetic) was 4.5 µg/mL (≈ 14.3 µM).

As for `Cc1noc(C)c1C(=O)NCC(=O)Nc1ccccc1Br`, the solubility (kinetic) is greater than 52.8 µg/mL.

In turn, `CC(C)(C)C(=O)N1c2ccccc2CCc2ccccc21` returned a kinetic solubility of 28.7 µg/mL (≈ 103 µM).

Turning to `CC1=C(C)CC(C(=O)NCc2ccccc2F)C(C(=O)O)C1` (configuration not stated), the solubility (kinetic) was greater than 45.8 µg/mL.

On to `COc1ccc(NC(=S)N(CCN(C)C)Cc2cccs2)cc1`, for which the kinetic solubility was greater than 52.4 µg/mL.

Regarding `CC(CNC(=O)c1ccccc1Cl)NC(=O)c1ccccc1Cl` (configuration not stated), the kinetic solubility was greater than 52.7 µg/mL.

`O=C1N=C(N2CCc3ccccc3C2)S/C1=C\c1ccc(O)cc1` showed a solubility (kinetic) of 3.4 µg/mL (≈ 10.1 µM).

`Cc1ccc2[nH]c3c(c2c1)CCN1C(=O)OC(C)(C)C31C` (configuration not stated) returned a kinetic solubility of 10.4 µg/mL (≈ 36.6 µM).

The molecule `CC(C)(C)N1CC(C(=O)Nc2ccc(C#N)cc2)CC1=O` (configuration not stated) gave a solubility (kinetic) of 40.2 µg/mL (≈ 141 µM).

Regarding `O=C(Cc1ccc(Cl)cc1)Nc1cc(Cl)ccn1`, the kinetic solubility amounted to 3.5 µg/mL (≈ 12.4 µM).

`O=C(CN1CCN(c2ccccc2)CC1)NCc1ccc(F)cc1` registered a solubility (kinetic) greater than 49.1 µg/mL.

On to `O=C(Nc1cccc(S(=O)(=O)Nc2ccccc2F)c1)c1ccco1`, for which the solubility (kinetic) is 11.1 µg/mL (≈ 30.8 µM).

As for `COc1ccccc1CNc1ccc2c(c1)CCC2`, the solubility (kinetic) is 7.4 µg/mL (≈ 29.2 µM).

Consider `CCOc1ccc(NS(=O)(=O)c2ccc3[nH]c(=O)[nH]c3c2)cc1`, for which the kinetic solubility amounted to 2 µg/mL (≈ 6 µM).

In turn, `Cc1onc(-c2ccccc2)c1C(=O)O/N=C(\N)c1ccc([N+](=O)[O-])o1` gave a kinetic solubility of 11.6 µg/mL (≈ 32.6 µM).

`CCC(C)(NC=O)C(=O)Nc1c(C)cccc1C` (configuration not stated) came in with a kinetic solubility greater than 37.2 µg/mL.

Molecule `O=C(CCC(=O)c1cccs1)NCc1cccc(Cl)c1` came in with a kinetic solubility greater than 46.2 µg/mL.

For the molecule `CC(=O)Nc1ccc(Sc2ccccc2C(=O)O)cn1`, the kinetic solubility is greater than 43.2 µg/mL.

As for `N#Cc1ccc(NC(=O)c2cccs2)nc1`, the solubility (kinetic) is greater than 34.4 µg/mL.

On to `CCSC1=C(C#N)C(CC(C)C)C2=C(CCCC2=O)N1` (configuration not stated), for which the solubility (kinetic) was found to be 41.9 µg/mL (≈ 144 µM).

Take `Clc1ccc2c(c1)Nc1ccccc1CC2`: the solubility (kinetic) was less than 0.5 µg/mL.

Regarding `COc1ccc(NC(=O)NCCN2CCCCC2)cc1`, the kinetic solubility turned out to be 33.9 µg/mL (≈ 122 µM).

On to `CC1CCN(C(=O)CS(=O)(=O)Cc2ccccc2)CC1`, for which the solubility (kinetic) came out at 42.3 µg/mL (≈ 143 µM).

For the molecule `CC1CCC(NC(=S)NCCN(C)C)CC1` (configuration not stated), the kinetic solubility was determined as 25.6 µg/mL (≈ 105 µM). This solubility kinetic lies about 1.7-fold lower than the previous one.

For `CCN(CC)c1nc(C)nc2c1sc(=S)n2C`, the kinetic solubility worked out at 0.6 µg/mL (≈ 2.24 µM).

For the molecule `COc1ccc(NC2CC(=O)N(c3cccc([N+](=O)[O-])c3)C2=O)cc1` (configuration not stated), the kinetic solubility was greater than 51.2 µg/mL.

Molecule `COc1ccccc1NC(=O)c1ccc2c(c1)C(=O)N(Cc1ccco1)C2=O` showed a solubility (kinetic) of less than 0.4 µg/mL.

`COc1ccc(NC(=O)NC2(C(=O)N3CCCC(C)C3)CCCCC2)cc1` (configuration not stated) had a solubility (kinetic) of 36.2 µg/mL (≈ 96.9 µM).

In turn, `O=C(COc1ccc(F)cc1)N1CCC(Cc2ccccc2)CC1` had a solubility (kinetic) of 18.8 µg/mL (≈ 57.4 µM). This solubility kinetic is about 1.9-fold lower than that of the molecule before.

Consider `CCN(CCO)C(=O)c1ccc2oc(Cc3ccc(Cl)cc3)nc2c1`, for which the solubility (kinetic) amounted to 41.5 µg/mL (≈ 116 µM).

In turn, `Cc1ccc(S(=O)(=O)NC(=O)C2CCCCC2)cc1` yielded a kinetic solubility greater than 42.2 µg/mL.

With `Cc1ccc(NC(=O)c2ccc(OCc3c(C)noc3C)cc2)cc1C`, the kinetic solubility turned out to be 6.7 µg/mL (≈ 19.1 µM).

The molecule `O=[N+]([O-])c1cc([N+](=O)[O-])c2nonc2c1Nc1ccccc1O` registered a solubility (kinetic) greater than 47.6 µg/mL.

`COc1cc2ccccc2cc1C(=O)NC1CCCC1` had a solubility (kinetic) greater than 40.4 µg/mL.

In the case of `Cn1cnc([N+](=O)[O-])c1Sc1ncnc2nc[nH]c12`, the kinetic solubility is greater than 41.6 µg/mL.

The molecule `O=C(O)C(Cc1ccc(Cl)cc1)Sc1nc2ccccc2[nH]1` (configuration not stated) showed a kinetic solubility of 42.3 µg/mL (≈ 127 µM).

`Cc1cccc(C(=O)OCC(=O)N2CCCC2=O)c1[N+](=O)[O-]` displayed a kinetic solubility greater than 45.9 µg/mL.

For `CC1(C)C2C(Cl)(Cl)C2(C)c2ccccc2N1C=O` (configuration not stated), the solubility (kinetic) turned out to be 38.3 µg/mL (≈ 135 µM).

For the molecule `COc1ccccc1C(=O)NCCC(=O)NCc1ccncc1`, the solubility (kinetic) is greater than 47 µg/mL.

Take `CC(C)[C@H](NC(=O)c1ccccc1)C(=O)NC1=NCCS1`: the solubility (kinetic) stood at 44.6 µg/mL (≈ 146 µM).

In turn, `COCC(C)NC(=S)NCCc1ccc(Cl)cc1Cl` (configuration not stated) showed a solubility (kinetic) greater than 48.2 µg/mL.

Turning to `CN(C(=O)Nc1ccccc1)C1CCCCC1`, the solubility (kinetic) was determined as 8.6 µg/mL (≈ 37 µM).

As to `O=C(Nc1nnc(CCN2CCCCC2)s1)c1ccccc1Cl`, the solubility (kinetic) is greater than 52.6 µg/mL.

On to `COC(=O)CSc1nc(NCc2ccccc2)nc(N(C)C)n1`, for which the solubility (kinetic) was determined as 0.3 µg/mL (≈ 0.9 µM).

`Cn1cc(S(=O)(=O)Oc2ccccc2)c(=O)n(C)c1=O` displayed a kinetic solubility of 39.5 µg/mL (≈ 133 µM).

In turn, `Cc1ccc(S(=O)(=O)Nc2ccc(Oc3cccnc3)nc2)cc1` showed a kinetic solubility of 16.8 µg/mL (≈ 49.2 µM). This solubility kinetic lies about 2.4-fold lower than the previous one.

Regarding `COc1cc(OC)cc(C(=O)O/N=C(\N)c2cccc(C)c2)c1`, the solubility (kinetic) came out at 6.2 µg/mL (≈ 19.7 µM).

`O=Cc1c(NC2CCCCC2)c2ccccc2[nH]c1=O`: the solubility (kinetic) was 35.2 µg/mL (≈ 130 µM).

`COc1ccc(C(=O)NC(C)c2cccnc2)cc1S(=O)(=O)N(C)Cc1ccccc1` (configuration not stated) came in with a kinetic solubility of 47 µg/mL (≈ 107 µM).

`CN1C(=O)NC(c2cccc(F)c2)C2=C1CC(C)(C)CC2=O` (configuration not stated) displayed a kinetic solubility greater than 45.4 µg/mL.
